Where a SMILES comes first, the peptide text is derived from it.
Assays:
Rattus norvegicus [1] = assay: Neuroprotective activity against medial cerebral artery occlusion induced cerebral ischemia rat model assessed decrease in infarct volume at 0.1 mg/kg, ip qd administered 4 hrs post reperfusion and measured after 6 days by TTC staining based assay; assay type: functional; set-up: scale not given: the % may be the effect or the level left; settings: time 144 hrs
Rattus norvegicus [2] = assay: Neuroprotective activity against medial cerebral artery occlusion induced cerebral ischemia rat model assessed decrease in infarct volume at 1 mg/kg, ip qd administered 4 hrs post reperfusion and measured after 6 days by TTC staining based assay; assay type: functional; set-up: scale not given: the % may be the effect or the level left; settings: time 144 hrs
[3] = Induction of TrkA phosphorylation in rat PC12 cells at 3 uM measured after 10 to 30 mins by Western blotting analysis relative to control; assay type: functional, PC-12; settings: time 10-30 min
[4] = Neuroprotective activity against chick primary sensory neuron assessed as inhibition of BDNF-mediated neuronal survival; assay type: functional, Gallus gallus
[5] = biological target: BDNF/NT-3 growth factors receptor (Homo sapiens) (UniProt Q16620); assay: Agonist activity at human TrkB receptor in HEK293 cells assessed as increase in TrkB phosphorylation at 0.001 to 1 uM relative to control; assay type: cell-based; settings: filed as agonist, dose 0.001-1 µM
[6] = biological target: BDNF/NT-3 growth factors receptor (Homo sapiens) (UniProt Q16620); assay: Agonist activity at human TrkB receptor in HEK293 cells assessed as increase in ERK phosphorylation at 0.001 to 1 uM relative to control; assay type: cell-based; settings: filed as agonist, dose 0.001-1 µM
[7] = biological target: Hepatocyte growth factor (Homo sapiens) (UniProt P14210); assay: Activation of HGF in human A549 cells assessed as increase in Met phosphorylation; assay type: cell-based
Chain of Hepatocyte growth factor (Homo sapiens) (P14210 32-494 limits assumed): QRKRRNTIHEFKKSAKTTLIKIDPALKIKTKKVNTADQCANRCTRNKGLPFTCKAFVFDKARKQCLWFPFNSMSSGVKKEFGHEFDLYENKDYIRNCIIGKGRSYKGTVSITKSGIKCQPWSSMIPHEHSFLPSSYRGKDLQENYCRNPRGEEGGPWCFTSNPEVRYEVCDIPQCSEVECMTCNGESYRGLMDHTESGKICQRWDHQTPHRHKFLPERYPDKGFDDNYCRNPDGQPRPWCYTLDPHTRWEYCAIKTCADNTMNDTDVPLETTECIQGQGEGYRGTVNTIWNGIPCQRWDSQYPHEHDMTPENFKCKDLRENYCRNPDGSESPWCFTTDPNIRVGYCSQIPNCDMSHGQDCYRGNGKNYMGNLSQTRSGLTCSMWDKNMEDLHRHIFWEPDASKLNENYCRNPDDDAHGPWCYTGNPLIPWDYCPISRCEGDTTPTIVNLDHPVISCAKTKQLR
Chain of Hepatocyte growth factor (Homo sapiens) (P14210 495-728 limits assumed): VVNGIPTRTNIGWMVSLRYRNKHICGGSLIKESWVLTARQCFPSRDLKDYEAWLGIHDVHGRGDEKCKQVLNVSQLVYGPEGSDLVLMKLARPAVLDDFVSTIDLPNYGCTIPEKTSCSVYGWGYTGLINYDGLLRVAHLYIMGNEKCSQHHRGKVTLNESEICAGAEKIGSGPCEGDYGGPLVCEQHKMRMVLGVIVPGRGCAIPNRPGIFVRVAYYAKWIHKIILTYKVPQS

Chain of BDNF/NT-3 growth factors receptor (Homo sapiens) (Q16620 32-822 limits assumed): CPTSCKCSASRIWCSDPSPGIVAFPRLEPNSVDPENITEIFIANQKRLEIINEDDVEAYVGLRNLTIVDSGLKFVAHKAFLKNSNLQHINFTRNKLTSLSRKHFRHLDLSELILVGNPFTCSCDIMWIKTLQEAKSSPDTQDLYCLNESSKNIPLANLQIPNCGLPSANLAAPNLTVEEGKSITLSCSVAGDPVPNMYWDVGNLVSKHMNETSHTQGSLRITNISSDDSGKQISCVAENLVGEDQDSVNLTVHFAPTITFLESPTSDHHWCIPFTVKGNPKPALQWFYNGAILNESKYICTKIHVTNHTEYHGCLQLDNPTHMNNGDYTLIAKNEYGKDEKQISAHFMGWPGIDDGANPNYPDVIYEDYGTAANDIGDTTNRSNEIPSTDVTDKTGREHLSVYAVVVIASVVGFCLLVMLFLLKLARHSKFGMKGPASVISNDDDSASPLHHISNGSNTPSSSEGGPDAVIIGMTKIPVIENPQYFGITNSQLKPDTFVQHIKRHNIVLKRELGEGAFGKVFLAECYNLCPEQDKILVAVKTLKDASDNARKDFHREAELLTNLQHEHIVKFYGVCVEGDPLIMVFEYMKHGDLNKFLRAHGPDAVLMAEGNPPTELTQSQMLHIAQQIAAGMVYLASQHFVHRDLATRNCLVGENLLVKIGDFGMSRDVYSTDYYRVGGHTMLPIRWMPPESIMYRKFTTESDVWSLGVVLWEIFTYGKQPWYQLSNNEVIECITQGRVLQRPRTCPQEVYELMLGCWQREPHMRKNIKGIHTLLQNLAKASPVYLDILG

For NCCCC[C@H](NCCCCCCNC(=O)[C@H](CCCCN)NC(=O)[C@H](CO)NC(=O)CCC(=O)O)C(=O)N[C@@H](CO)C(=O)CCC(=O)O, which Activity (Rattus norvegicus [1]) is on record?
The Activity was ~66%.

Which Activity (Rattus norvegicus [2]) does the source give for NCCCC[C@H](NC(=O)[C@H](Cc1c[nH]cn1)NCCCCCCNC(=O)[C@H](Cc1c[nH]cn1)NC(=O)[C@H](CCCCN)NC(=O)CCCO)C(=O)CCCO here?
The Activity was 25%.

For CC[C@H](C)[C@@H]1NC(=O)[C@H](CC(=O)O)NC(=O)[C@H]([C@@H](C)O)NC(=O)[C@H](N)CSSC[C@H](C(=O)N[C@H](C(=O)NCC(=O)N[C@@H](C)C(=O)N[C@H]2CSSC[C@@H](C(=O)O)NC(=O)[C@H](CCC(N)=O)NC(=O)[C@H](CCCCN)NC(=O)CNC(=O)[C@H](CC(=O)O)NC2=O)[C@@H](C)O)NC(=O)[C@H](CCCCN)NC(=O)CNC(=O)[C@H](CCCCN)NC1=O, which Activity [3] is on record?
Its Activity is ~75%.

Which “inhibition (INH)” value [4] does the source give for CC(C)C[C@@H]1NC(=O)[C@H](CCC(N)=O)NC(=O)CNC(=O)[C@H](CCCCN)NC(=O)[C@H](CO)NC(=O)[C@H](C(C)C)NC(=O)[C@@H]2CCCN2C(=O)[C@H](C(C)C)NC(=O)[C@@H](N)CSSC[C@@H](C(=O)O)NC1=O (HELM PEPTIDE1{C.V.P.V.S.K.G.Q.L.C}$PEPTIDE1,PEPTIDE1,1:R3-10:R3$$$V2.0) here?
Its value is 50%.

What does the source list for CSCC[C@H](NC(=O)[C@H](CCCNC(=N)N)NC(=O)[C@@H]1CCCN1C(=O)[C@H](CC(C)C)NC(=O)[C@H](CO)NC(=O)[C@H](CC(N)=O)NC(=O)CC(N)CC(=O)[C@H](CC(N)=O)NC(=O)[C@H](CO)NC(=O)[C@H](CC(C)C)NC(=O)[C@@H]1CCCN1C(=O)[C@H](CCCNC(=N)N)NC(=O)[C@H](CCSC)NC(=O)[C@@H]1CSSC[C@H](C(N)=O)C(=O)N[C@@H](CC(C)C)C(=O)N[C@@H](CCCNC(=N)N)C(=O)N[C@@H](Cc2c[nH]c3ccccc23)C(=O)N[C@@H](CCCNC(=N)N)C(=O)N[C@@H](CCCNC(=N)N)C(=O)N[C@@H](C(C)C)C(=O)N[C@@H](CCCNC(=N)N)C(=O)N1)C(=O)N[C@H]1CSSC[C@@H](C(=O)N[C@@H](Cc2ccccc2)C(=O)O)NC(=O)[C@H](CC(C)C)NC(=O)[C@H](CCCNC(=N)N)NC(=O)[C@H](Cc2c[nH]c3ccccc23)NC(=O)[C@H](CCCNC(=N)N)NC(=O)[C@H](CCCNC(=N)N)NC(=O)[C@H](C(C)C)NC(=O)[C@H](CCCNC(=N)N)NC1=O (some centres not stated) (HELM PEPTIDE1{L.R.W.R.R.V.R.C.M.R.P.L.S.[NC(=O)C[C@H](N[*:1])C(=O)CC(N)CC(=O)[*:2]].N.S.L.P.R.M.C.R.V.R.R.W.R.L.C.F}|CHEM1{[NC(=O)[C@@H](CS[*:2])C(=O)[*:1]]}$PEPTIDE1,PEPTIDE1,21:R3-29:R3|PEPTIDE1,CHEM1,1:R1-1:R1|PEPTIDE1,CHEM1,8:R3-1:R2$$$V2.0)?
Activity [5]: 50%; Activity [6]: 50%

Which Activity [7] does the source give for H-VVNGIPTR-OH here?
Its Activity is 25%.

Source: ChEMBL document CHEMBL5325458, “Growth factors and their peptide mimetics for treatment of traumatic brain injury” (2023)
